The structures appear in SMILES notation. The source made the active and inactive calls.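 Rule for the calls: active = fitted curve drops past -35% activity change at a concentration up to twice the top valid tested dose; inactive = the rest, including activity in the opposite direction.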

System in one experiment: not listed separately
Description: viability loss in HepG2 hepatoma cells – cell-based, luminescence, dry powder, set 12, cytotoxicity control, dose response (AID 743471). Conditions: HepG2 viability, ATP luminescence (CellTiter-Glo), 72 h; at 0.8 µM (top of the series). A general note: In ATP-based viability assays light output follows the ATP content of the culture.
Take `CCN(CCO)CCCOc1ccc2c(Nc3cc(CC(=O)Nc4cccc(F)c4)[nH]n3)ncnc2c1`: the activity change, negative = cytotoxicity is 6.31% (inactive). For the compound `CC[C@]1(O)CC2CN(CCc3c([nH]c4ccccc34)[C@@](C(=O)OC)(c3cc4c(cc3OC)N(C=O)[C@H]3[C@@](O)(C(=O)OC)[C@H](OC(C)=O)[C@]5(CC)C=CCN6CC[C@]43[C@@H]65)C2)C1` (stereo partly drawn), the activity change, negative = cytotoxicity is -12.1% (inactive).

The experiment is the same for the next values; noted with them: HepG2 viability, ATP luminescence (CellTiter-Glo), 72 h; at 1.35 µM (top of the series).
For the compound `COc1cc([C@@H]2c3cc4c(cc3[C@@H](O[C@@H]3O[C@@H]5CO[C@@H](C)O[C@H]5[C@H](O)[C@H]3O)[C@H]3COC(=O)[C@H]23)OCO4)cc(OC)c1O`, the activity change, negative = cytotoxicity was -5.5% (inactive).

Staying with this experiment, now noted: HepG2 viability, ATP luminescence (CellTiter-Glo), 72 h; at 8 µM (top of the series).
For `COc1cccc(S(=O)(=O)N2CC[C@@H]3[C@@H](CO)Nc4ccc(-c5ccc(C#N)cc5)cc4[C@@H]32)c1`, the activity change, negative = cytotoxicity was 25.7% (inactive). Same read-out and setting: the same measure for `N#CC1=C(N)Oc2cc3c(cc2C1c1cccc(Br)c1)OCO3` (stereo not drawn): -4.83% (inactive).

Still in this experiment, the particulars now being: HepG2 viability, ATP luminescence (CellTiter-Glo), 72 h; at 12 µM (top of the series).
`C[C@@]1(C(=O)Nc2ccc(F)nc2)CCCN1c1nc(Nc2cc(C3CC3)[nH]n2)c2cccn2n1`: the activity change, negative = cytotoxicity was -31.6% (inactive). `O=C(Cc1ccc(-c2ccc(OCCN3CCOCC3)cc2)cn1)NCc1ccccc1`: the activity change, negative = cytotoxicity was -10.2% (inactive). The same measure, in the same setting: in the case of `COc1ccc(NC(=O)Nc2ccc3c(c2)C(=O)N([C@@H](C)CO)C[C@H](C)[C@H](CN(C)Cc2ccc4c(c2)OCO4)O3)cc1` it was -13.2% (inactive).

For the compound `COc1ccc(OC)c(-c2nnc3n2N=C(c2ccc(OC)c(OC)c2)CS3)c1`, the activity change, negative = cytotoxicity is -16.5% (inactive).

The same experiment, now with this note: HepG2 viability, ATP luminescence (CellTiter-Glo), 72 h; at 26 µM (top of the series).
In the case of `N#CC1=C(N)Oc2cc(OC(=O)c3ccccc3)ccc2C1c1cccc(Br)c1` (stereo not drawn), the activity change, negative = cytotoxicity is -8.31% (inactive). For the compound `CN1c2ccc(-c3ccc(C#N)cc3)cc2[C@H]2[C@H](CCN2S(=O)(=O)c2cccc(F)c2)[C@H]1CO`, the activity change, negative = cytotoxicity was -20.9% (inactive). On to `COc1ccc(CNc2nc(N3CCC[C@H]3CO)ncc2C(=O)NCc2ncccn2)cc1Cl`, for which the activity change, negative = cytotoxicity was -10.6% (inactive). For the compound `N#CC1=C(N)Oc2cc(N)ccc2C1c1ccccc1Cl` (stereo not drawn), the activity change, negative = cytotoxicity was -2.14% (inactive). Consider `Cc1c([C@H](C(Cl)Cl)[C@H](O)[C@H]2C[C@H](C)C(=O)O2)ccc2c1C(=O)[C@H]1[C@H]2C[C@@H](Br)[C@@]23O[C@@H](CO[C@H]2O)C[C@]13C`, for which the activity change, negative = cytotoxicity was -19.2% (inactive). `COc1cccc(C2C(C#N)=C(N)Oc3cc(N)ccc32)c1` (stereo not drawn): the activity change, negative = cytotoxicity was -11.2% (inactive). Take `Cc1ccccc1C1C(C#N)=C(N)Oc2cc(N)ccc21` (stereo not drawn): the activity change, negative = cytotoxicity is 0.564% (inactive). In the case of `N#Cc1ccc(-c2ccc3c(c2)[C@H]2[C@H](CCN2S(=O)(=O)c2ccccc2F)[C@@H](CO)N3)cc1`, the activity change, negative = cytotoxicity is -18.6% (inactive). As for `COc1ccc(S(=O)(=O)N(C(C)=O)c2ccc(OC(C)=O)c3ccccc23)cc1[N+](=O)[O-]`, the activity change, negative = cytotoxicity was -15.5% (inactive).

Take `Clc1ccccc1-c1nnc2n1N=C(c1ccc3c(c1)OCO3)CS2`: the activity change, negative = cytotoxicity is -25.1% (inactive). In the case of `COc1ccc(C2CNC(=O)C2)cc1OC1CCCC1` (stereo not drawn), the activity change, negative = cytotoxicity was 15.7% (inactive).

Regarding `COc1ccc(S(=O)(=O)N2CC[C@@H]3[C@H](CO)Nc4ccc(-c5ccc(C#N)cc5)cc4[C@@H]32)cc1`, the activity change, negative = cytotoxicity was -32.1% (inactive).

For the compound `CN1c2ccc(-c3ccc(C#N)cc3)cc2[C@H]2[C@H](CCN2S(=O)(=O)c2ccc(F)cc2)[C@H]1CO`, the activity change, negative = cytotoxicity was 20.9% (inactive). Take `COc1ccc(S(=O)(=O)N2CC[C@@H]3[C@@H](CO)N(C)c4ccc(-c5ccc(F)cc5)cc4[C@@H]32)cc1`: the activity change, negative = cytotoxicity is -2.59% (inactive). In the case of `N#CC1=C(N)Oc2cc(N)ccc2C1c1ccc(Cl)cc1` (stereo not drawn), the activity change, negative = cytotoxicity is -15.5% (inactive). Turning to `COC(=O)c1ccc(C2C(C#N)=C(N)Oc3cc(N)ccc32)cc1` (stereo not drawn), the activity change, negative = cytotoxicity was 6.98% (inactive).

With `CN(C)c1ccc2c(c1)OC(N)=C(C#N)C2c1cccc(F)c1` (stereo not drawn), the activity change, negative = cytotoxicity was -8.25% (inactive). As for `COc1cc(C2C(C#N)=C(N)Oc3cc(N(C)C)ccc32)cc2c1OCO2` (stereo not drawn), the activity change, negative = cytotoxicity is -11.7% (inactive). As for `CCC(C)(C)C(=O)O[C@H]1C[C@@H](C)C=C2C=C[C@H](C)[C@H](CC[C@@H]3C[C@@H](O)CC(=O)O3)[C@H]21`, the activity change, negative = cytotoxicity is 1.04% (inactive).

With `C[C@]1(c2nc3c(C(N)=O)cccc3[nH]2)CCCN1`, the activity change, negative = cytotoxicity is -5.99% (inactive). `O=C(Nc1c(Cl)cncc1Cl)c1ccc(OC(F)F)c(OCC2CC2)c1`: the activity change, negative = cytotoxicity is 5.78% (inactive). On to `COc1ccc(C2C(C#N)=C(N)Oc3cc(N)ccc32)cc1` (stereo not drawn), for which the activity change, negative = cytotoxicity is -5.71% (inactive). Turning to `COc1ccc(OC)c(-c2nnc3n2N=C(c2ccc(OC)c(OC)c2)CS3)c1`, the activity change, negative = cytotoxicity is -21.2% (inactive). As for `COc1ccccc1-c1nnc2n1N=C(c1ccc3c(c1)OCO3)CS2`, the activity change, negative = cytotoxicity was -11.4% (inactive). For the compound `COc1ccccc1S(=O)(=O)N1CC[C@@H]2[C@@H](CO)Nc3ccc(-c4ccc(C#N)cc4)cc3[C@@H]21`, the activity change, negative = cytotoxicity was -11.4% (inactive). As for `Cc1ccc([N+](=O)[O-])cc1S(=O)(=O)N(C)C`, the activity change, negative = cytotoxicity is -2.85% (inactive). Same read-out and setting: in the case of `N#CC1=C(N)Oc2cc(N)ccc2C1c1cccc(F)c1` (stereo not drawn) it was -15.7% (inactive); in that of `COc1cc(Nc2ncc3c(n2)-c2ccc(Cl)cc2C(c2c(F)cccc2OC)=NC3)ccc1C(=O)O`, -12.9% (inactive).

For the compound `Cc1ccc(S(=O)(=O)N2CC[C@@H]3[C@@H](CO)Nc4ccc(-c5ccc(C#N)cc5)cc4[C@@H]32)cc1`, the activity change, negative = cytotoxicity was -7.83% (inactive). Regarding `CCCCc1ccc2nc(NC(=O)OC)[nH]c2c1`, the activity change, negative = cytotoxicity was -18.5% (inactive). Still for that read-out and setting: the same measure for `CN(C(=O)CCCOc1ccc2[nH]c(=O)ccc2c1)C1CCCCC1`: -11.4% (inactive); for `N#CC1=C(N)Oc2cc(N)ccc2C12C(=O)Nc1ccc(Br)cc12` (stereo not drawn): -10.7% (inactive); for `N#CC1=C(N)Oc2cc(N)ccc2C1c1ccc2ccccc2c1` (stereo not drawn): -25.4% (inactive). Same read-out and setting: the same measure for `Cc1ccc(C2C(C#N)=C(N)Oc3cc(N)ccc32)cc1` (stereo not drawn): 1.29% (inactive). As for `COc1ccccc1C1C(C#N)=C(N)Oc2cc(N)ccc21` (stereo not drawn), the activity change, negative = cytotoxicity is 4.04% (inactive). On to `Cc1cccc(C2C(C#N)=C(N)Oc3cc(N)ccc32)c1` (stereo not drawn), for which the activity change, negative = cytotoxicity was -14.7% (inactive). In the case of `N#CC1=C(N)Oc2cc(N)ccc2C1c1cccc(Br)c1` (stereo not drawn), the activity change, negative = cytotoxicity is -3.92% (inactive).

The experiment is the same for the next values; noted with them: HepG2 viability, ATP luminescence (CellTiter-Glo), 72 h; at 50 µM (top of the series).
As to `O=P1(NCCCl)OCCCN1CCCl` (stereo not drawn), the activity change, negative = cytotoxicity was 7.58% (inactive).

The experiment is the same for the next values; noted with them: HepG2 viability, ATP luminescence (CellTiter-Glo), 72 h; at 110 µM (top of the series).
Regarding `O=C(c1cc(Cc2n[nH]c(=O)c3ccccc23)ccc1F)N1CCN(C(=O)C2CC2)CC1`, the activity change, negative = cytotoxicity was -17.3% (inactive).

The next experiment concerns HepG2 viability, ATP luminescence (CellTiter-Glo), 72 h. Described as above.
Conditions: not given
Regarding `CC[C@@]1(O)C(=O)OCc2c1cc1n(c2=O)Cc2cc3c(CN(C)C)c(O)ccc3nc2-1`, the AC35 was 2.2 µM. As to `CC(C)N1c2ccccc2C(c2ccc(F)cc2)C1/C=C/C(O)CC(O)CC(=O)O` (stereo not drawn), the AC35 was 22.3 µM. Regarding `Clc1ccc(-c2cnc3ccc(-c4ccccc4)cn23)cc1`, the AC35 is 3.58 µM.

On to `CC1(C)CC(c2nc(-c3ccc4ccc(-c5ccccc5)nc4c3)c3c(N)nccn23)C1`, for which the AC35 is 7.54 µM. For `COc1ccccc1-c1nnc2n1N=C(c1ccc(O)c(O)c1)CS2`, the AC35 is 19.2 µM. Regarding `COc1ccc(-c2ccc3c(c2)[C@H]2[C@H](CCN2S(=O)(=O)c2ccc(OC)cc2)[C@@H](CO)N3C)cc1`, the AC35 was 21.4 µM. As for `CCOC(=O)CCNc1cc(N2CCc3ccccc3CC2)nc(-c2ccccn2)n1`, the AC35 is 16.5 µM.

For the compound `N#Cc1ccc(-c2ccc3c(c2)[C@H]2[C@H](CCN2S(=O)(=O)c2cccc(F)c2)[C@@H](CO)N3)cc1`, the AC35 is 24.5 µM. With `N#CC1=C(N)Oc2cc(N)ccc2C1c1ccccc1` (stereo not drawn), the AC35 was 15 µM.

Regarding `COc1ccc(C2=Nn3c(nnc3-c3ccccc3Cl)SC2)cc1OC`, the AC35 is 15.5 µM. For `COc1ccc(-c2cc(NC=O)c3ncc(-c4ccc(OC)c(OC)c4)n3c2)cc1`, the AC35 was 3.25 µM. With `COc1ccc(S(=O)(=O)N2CC[C@@H]3[C@@H](CO)Nc4ccc(-c5cccc(C#N)c5)cc4[C@@H]32)cc1`, the AC35 was 14.9 µM. Still for that read-out and setting: the same measure for `C=C([C@@H](O)[C@@H](C)O)[C@@H](OC)[C@]1(C)Cc2cc3cc(O[C@H]4CC(OC5CC(O)C(O)C(C)O5)C(O)C(C)O4)cc(O)c3c(O)c2C(=O)[C@H]1OC1CC(OC2CC(OC3CC(C)(O)C(O)C(C)O3)C(O)C(C)O2)C(O)C(C)O1` (stereo partly drawn): 0.116 µM; for `COc1ccc(S(=O)(=O)N2CC[C@@H]3[C@@H](CO)Nc4ccc(-c5ccc(C#N)cc5)cc4[C@@H]32)cc1`: 12.2 µM; for `N#CC1=C(N)Oc2ccc3ccccc3c2C1c1cccc(F)c1` (stereo not drawn): 16.4 µM. Still for that read-out and setting: in the case of `Nc1ncnc2c1c(-c1cccc(OCc3ccccc3)c1)cn2C1CC(CN2CCCC2)C1` (stereo not drawn) it was 9.61 µM. Still for that read-out and setting: the same measure for `COc1ccc(C2=Nn3c(nnc3-c3ccccc3)SC2)cc1OC`: 20.2 µM. For `COc1cccc2c1C(=O)c1c(O)c3c(c(O)c1C2=O)C[C@@](O)(C(=O)CO)C[C@@H]3O[C@H]1C[C@H](N)[C@H](O)[C@H](C)O1`, the AC35 is 0.0577 µM. Regarding `Cc1nc(Nc2ncc(C(=O)Nc3c(C)cccc3Cl)s2)cc(N2CCN(CCO)CC2)n1`, the AC35 was 12.5 µM.

For the compound `CC(C)(O)CCc1ccc(O)c2c(=O)c3c(O)c4c(cc3oc12)O[C@H]1OC=C[C@@]41O`, the AC35 was 0.065 µM.
